Source: US7223547B2, “Polypeptides having a functional domain of interest and methods of identifying and using same” (Cytogen Corporation, priority 1995, dated 2007)
* marks the point of attachment. Biotin = O=C1N[C@H]2[C@H](CS[C@H]2CCCCC(=O)*)N1

Key:
[1] = system: virus that causes hepatitis B; conditions: at given dosages; cited from earlier work
[2] = patients to whom the drug is administered; cited from earlier work
SH3 domain of Abl = SH3 domain of Abl (Homo sapiens, UniProt P00519); assay: Stated SH3 domain binding of recognition unit
Sequence of SH3 domain of Abl (P00519 61-121 limits assumed): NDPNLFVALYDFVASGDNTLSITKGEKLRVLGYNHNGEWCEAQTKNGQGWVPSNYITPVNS

## O=c1[nH]c(=O)n([C@@H]2O[C@H](CO)[C@@H](O)[C@@H]2F)cc1I [FIAU]
[1]
  effectiveness against the virus that causes hepatitis B: effective
[2]
  suspected toxic side effects: liver failure in certain patients

## Biotin-SRPPRWSPPPVPLPTSLDSR-NH2 [PXXP.ABL.G1/2M]
SH3 domain of Abl
  binding to the SH3 domain of Abl: bind

## Biotin-SRSLSEVSPKPPIRSVSLSR-NH2 [PXXP.NCK.S1/4]
SH3 domain of Nck
  binding to the SH3 domain of Nck: bind
